Values of other authors, collected in patent US20110294894A1, “Pharmaceutical Composition for the Treatment of Solar Urticaria” (priority 2010, published 2011).

Test system: severe antihistamine-resistant solar urticaria
Settings: single case, Güzelbey et al., 2008

omalizumab
effectiveness in solar urticaria: effective
